# Assay results reported in patent US8497365B2, “Cyclodextrin-based polymers for therapeutics delivery” (priority 2007, dated 2013).
# Read-outs that look alike come from different tables or passages of the source.
# Key:
# [1] = tested on: A2780 (ovarian) cells
# [2] = neutral pH
# [3] = tested on: NCI-H1299 (lung) cells
# [4] = tested on: HT-29 (colon) cells; assay: Antiproliferative activity in vitro; format: cell-based, human
# [5] = tested on: HT-29 colorectal carcinoma xenografts; assay: Efficacy study in subcutaneous HT29 xenograft; conditions: for Deaths TR (treatment related) / Regressions CR (complete regression) / Regressions PR (partial regression) / Regressions TFS (tumor-free survivor): n=10; for Median TTE (time to endpoint): endpoint 1000 mm^3 or Day 90
# Method: Efficacy was evaluated in nude mice bearing subcutaneously implanted HT-29 colorectal carcinoma xenografts. HRLN female nu/nu mice were set up with 1 mm^3 HT-29 tumor fragments s.c. in the flank. The pair match was then done when the tumors reached an average size of 80 to 120 mg and was followed by beginning treatment. Dosing solutions were prepared daily and body weight was determined bi-weekly until the end of the study. Caliper measurements were taken bi-weekly to the end of the study. Animals were monitored individually, and the endpoint of the experiment was a tumor volume of 1 g or 90 days, whichever came first. […] When the endpoint was reached, the animals were euthanized.
# Tubulysin A was administered as a solution in 10% DMSO:1% Tween 80:89% Saline. The vehicle was 10% DMSO:1% Tween 80:89% Saline.
# [6] = for Day of mean BW Nadir / # of TR (treatment related deaths) / Avg. Day of TR: qwkx3 iv
# Method: HRLN female nu/nu mice were set up and dosing solutions were prepared. Body weight was determined biweekly until the end of the study. The endpoint was where mean weight loss exceeded 20% or >10% of animals in a group died, dosing was immediately stopped. Moribund animals were euthanized following PRC SOP. All animals were euthanized 14 days post final dose.
# [7] = tested on: human ovarian carcinoma cell line A2780; assay: Cytotoxicity of etoposide derivatives, MTS assay; format: cell-based; conditions: A2780, 72 h
# Method: The cytotoxicity of drug-polymer conjugates and linker-drug precursors was determined in the human ovarian carcinoma cell line A2780. […] 10,000 cells per well were seeded in a 96-well plate and incubated at 37° C. for 24 hours, at which time drug was added to triplicate wells at various concentrations. After 72 hours of incubation at 37° C. in the presence of drug, cells were washed with PBS, incubated for 1 hour with an MTS solution, and analyzed according to manufacturer's instructions (CellTiter 96 one solution cell proliferation assay, Promega, Madison, Wis.).
structure (smiles),measurement,setting,value
"CC[C@H](C)[C@H](NC(=O)[C@H]1CCCCN1C)C(=O)N(COC(=O)CC(C)C)[C@H](C[C@@H](OC(C)=O)c1nc(C(=O)N[C@@H](Cc2ccc(O)cc2)C[C@H](C)C(=O)O)cs1)C(C)C [Tubulysin A, tubulysin A]",IC50,[1],2.4 nM
same,solubility in water,[2],100 µg/mL
same,IC50,[3],2.8 nM
same,IC50,[4],1.3 nM
same,% TGD,[5]; 0.1 mg/kg qwkx3 i.v. (Group 2),2.42%
same,BW Nadir (%),[5]; 0.1 mg/kg qwkx3 i.v. (Group 2),−26.80%
same,"TC (tumor growth delay, T−C)",[5]; 0.1 mg/kg qwkx3 i.v. (Group 2),0.81 days
same,Deaths TR (treatment related),[5]; 0.1 mg/kg qwkx3 i.v. (Group 2),5
same,Regressions CR (complete regression),[5]; 0.1 mg/kg qwkx3 i.v. (Group 2),0
same,Regressions PR (partial regression),[5]; 0.1 mg/kg qwkx3 i.v. (Group 2),0
same,Regressions TFS (tumor-free survivor),[5]; 0.1 mg/kg qwkx3 i.v. (Group 2),0
same,Median TTE (time to endpoint),[5]; 0.1 mg/kg qwkx3 i.v. (Group 2),34.46
same,mortality,"[5]; 0.1 mg/kg qwkx3 i.v., HT-29 xenograft mice",50%
same,maximum body weight loss,"[5]; 0.1 mg/kg qwkx3 i.v., on day 26",26.8%
same,toxicity of the free drug,[5]; even at 0.1 mg/kg,severely toxic
same,Day of mean BW Nadir,[6]; 0.05 mg/kg,5 days
same,# of TR (treatment related deaths),"[6]; 0.05 mg/kg, n=5",0
same,Avg. Day of TR,[6]; 0.3 mg/kg,9
same,Day of mean BW Nadir,[6]; 0.3 mg/kg,8 days
same,# of TR (treatment related deaths),"[6]; 0.3 mg/kg, n=4",4
same,Avg. Day of TR,[6]; 1 mg/kg,4
same,Day of mean BW Nadir,[6]; 1 mg/kg,3 days
same,# of TR (treatment related deaths),"[6]; 1 mg/kg, n=4",4
same,Avg. Day of TR,[6]; 3 mg/kg,3
same,Day of mean BW Nadir,[6]; 3 mg/kg,2 days
same,# of TR (treatment related deaths),"[6]; 3 mg/kg, n=4",4
same,maximum tolerated dose (MTD),"[6]; nude mice, conjugate in Tubulysin equivalents",0.05 mg/kg
CC[C@]1(O)C[C@@H]2CN(CCc3c([nH]c4ccccc34)[C@@](C(=O)OC)(c3cc4c(cc3OC)N(C)[C@H]3[C@@](O)(C(=O)OC)[C@H](OC(C)=O)[C@]5(CC)C=CCN6CC[C@]43[C@@H]65)C2)C1 [Vinblastine],antitumor effectiveness compared to CDP-PEG-SS-Tubulysin,[5]; 4 mg/kg qwkx3 i.v.,significantly less effective
same,% TGD,[5]; 4 mg/kg qwkx3 i.v. (Group 3),33.89%
same,BW Nadir (%),[5]; 4 mg/kg qwkx3 i.v. (Group 3),−3.60%
same,Statistical Significance vs G1 (vehicle),[5]; 4 mg/kg qwkx3 i.v. (Group 3),** (** = 0.001< P < 0.01)
same,Statistical Significance vs G4 (CDP-S-S-TUB qwkx3),[5]; 4 mg/kg qwkx3 i.v. (Group 3),*** (*** = P < 0.001)
same,"TC (tumor growth delay, T−C)",[5]; 4 mg/kg qwkx3 i.v. (Group 3),11.4 days
same,Deaths TR (treatment related),[5]; 4 mg/kg qwkx3 i.v. (Group 3),0
same,Regressions CR (complete regression),[5]; 4 mg/kg qwkx3 i.v. (Group 3),0
same,Regressions PR (partial regression),[5]; 4 mg/kg qwkx3 i.v. (Group 3),0
same,Regressions TFS (tumor-free survivor),[5]; 4 mg/kg qwkx3 i.v. (Group 3),0
same,Median TTE (time to endpoint),[5]; 4 mg/kg qwkx3 i.v. (Group 3),45.05
COc1cc([C@@H]2c3cc4c(cc3[C@@H](O[C@@H]3O[C@@H]5CO[C@@H](C)O[C@H]5[C@H](O)[C@H]3O)[C@H]3COC(=O)[C@H]23)OCO4)cc(OC)c1O [etoposide],IC50,[7],200 nM
